# In paper PMC6356585 (Viruses, 2018):
# Where a name gives a salt, the structure may show the parent alone. Read-outs that look alike come from different tables or passages of the source. Residues, ends and D or L forms follow the SMILES beside them. *: point of attachment. Cbz = O=C(OCc1ccccc1)*
# Tests used:
# [1] = system: Vero cells; experiment: Cell viability (CellTiter-Glo) of Vero cells; format: cell-based
# [2] = system: ZIKV SPH; experiment: Autophagy compound library screen, ZIKV SPH titer (TCID50) in C6/36 cells; format: cell-based, Zika virus; settings: 10 µM compound, MOI 0.1, 96 h, TCID50, ± SEM, three independent trials; for activity at 10 µM: Zika virus, C6/36, read-out: ZIKV SPH Relative Titer in C6/36 Cells
# [3] = system: C6/36 cells; format: cell-based, Ae. albopictus
# [4] = 10 µM compound, 96 h, CellTiter-Glo, ± SEM, three independent trials
# [5] = 10 µM compound, 40 h, CellTiter-Glo, ± SEM, three independent trials
SMILES,Vero Viability ([1]; 10 µM),activity at 10 µM [2] [%],"C6/36 Viability [3, 4]",further results
O=CC[C@@H](O)[C@H](O)[C@H](O)CO [2-Deoxyglucose],98.7 ± 0.9% of untreated control,109 ± 61.2,73 ± 1% of untreated control,–
"C[C@H]1O[C@@H](n2cnc3c(N)ncnc32)C[C@@H]1O [2′,5′-Dideoxyadenosine]",–,317 ± 162,118 ± 15% of untreated control,"Vero Viability [1, 5]: 95.0 ± 1.5% of untreated control"
Cn1cnc(N)c2ncnc1-2 [3-Methyladenine],90.7 ± 1.8% of untreated control,155 ± 41,120 ± 15.6% of untreated control,–
CO/C1=C\C(C)=C\[C@@H](C)[C@@H](O)[C@@H](C)C/C(C)=C/C=C/[C@H](OC)[C@@H]([C@@H](C)[C@@H](O)[C@H](C)[C@@]2(O)C[C@@H](O)[C@H](C)[C@@H](C(C)C)O2)OC1=O [Bafilomycin A1],–,0,36 ± 6.1% of untreated control,"Vero Viability [1, 5]: 55.7 ± 9.5% of untreated control"
C[C@H]1CCC/C=C/[C@@H]2C[C@H](O)C[C@H]2[C@H](O)/C=C/C(=O)O1 [Brefeldin A],–,124 ± 25,–,"Vero Viability ([1]; 10 µM compound, 40 h, CellTiter-Glo, ± SEM, three independent trials, 10 µM): 17.0 ± 2.1% of untreated control; Vero Viability ([1]; 10 µM compound, 40 h, CellTiter-Glo, ± SEM, three independent trials, listed as brefeldin A, 10 µM): toxic; ZIKV SPH Relative Titer in C6/36 Cells [2]: did not alter viral titers; C6/36 Viability ([3]; 10 µM compound, 96 h, CellTiter-Glo, ± SEM, three independent trials, 10 µM): 91 ± 8.4% of untreated control; C6/36 Viability ([3]; 10 µM compound, 96 h, CellTiter-Glo, ± SEM, three independent trials, listed as brefeldin A, 10 µM): did not alter viral titers or cell viability"
Cn1c(=O)c2c(ncn2C)n(C)c1=O [Caffeine],–,138 ± 37.7,83 ± 4.6% of untreated control,"Vero Viability [1, 5]: 104.7 ± 8.6% of untreated control"
COc1cc(CNC(=O)CCCC/C=C/C(C)C)ccc1O [Capsaicin],–,48.1 ± 12,66 ± 7.2% of untreated control,"Vero Viability [1, 5]: 91.7 ± 2.4% of untreated control"
CCN(CC)CCCC(C)Nc1ccnc2cc(Cl)ccc12 (stereo not shown) [Chloroquine],–,126 ± 44.8,81 ± 17.1% of untreated control,"Vero Viability [1, 5]: 89.7 ± 4.4% of untreated control"
Clc1cccc(Cl)c1N=C1NCCN1 [Clonidine·HCl],97.7 ± 2.6% of untreated control,95.9 ± 53.4,–,C6/36 Viability ([3]; 10 µM): 69 ± 5.4% of untreated control
"CCCCC[C@H](O)CC(=O)CCc1ccc(O)c(OC)c1 [Compound 6-Gingerol, 6-Gingerol]",100.0 ± 2.5% of untreated control,109 ± 9.3,55 ± 11% of untreated control,–
COc1cc(/C=C/C(=O)CC(=O)/C=C/c2ccc(O)c(OC)c2)ccc1O [Curcumin],75.3 ± 11.3% of untreated control,0.3 ± 0.2,3 ± 0.7% of untreated control,–
C[C@@H]1C[C@@H]([C@H](O)CC2CC(=O)NC(=O)C2)C(=O)[C@@H](C)C1 [Cycloheximide],–,0,24 ± 3.5% of untreated control,"Vero Viability [1, 5]: 37.3 ± 6.2% of untreated control"
O=C(/C=C/c1cccnc1)NCCCCC1CCN(C(=O)c2ccccc2)CC1 [FK-866],32.7 ± 2.7% of untreated control,92.7 ± 32.4,–,C6/36 Viability ([3]; 10 µM): 48 ± 5.5% of untreated control
C=C[C@@]1(C)CC(=O)[C@]2(O)[C@@]3(C)[C@@H](O)CCC(C)(C)[C@@H]3[C@H](O)[C@H](OC(C)=O)[C@@]2(C)O1 [Forskolin],74.7 ± 3.7% of untreated control,302 ± 18.3,–,C6/36 Viability ([3]; 10 µM): 94 ± 12% of untreated control
COC1=C2C[C@@H](C)C[C@H](OC)[C@H](O)[C@@H](C)/C=C(\C)[C@H](OC(N)=O)[C@@H](OC)/C=C\C=C(/C)C(=O)NC(=CC1=O)C2=O [Geldanamycin],61.3 ± 5.7% of untreated control,25.8 ± 14.5,45 ± 5.8% of untreated control,–
N[C@H]1C(O)O[C@H](CO)[C@@H](O)[C@@H]1O (stereo partly shown) [Glucosamine HCl],99.3 ± 1.9% of untreated control,242 ± 45.8,88 ± 5.2% of untreated control,–

SMILES,Vero Viability ([1]; 10 µM),activity at 10 µM [2] [%],"C6/36 Viability [3, 4]",further results
Cc1ccc(NC(=O)c2ccc(CN3CCN(C)CC3)cc2)cc1Nc1nccc(-c2cccnc2)n1 [Imatinib mesylate],–,5.3 ± 2.2,19 ± 5.4% of untreated control,–
CC(C)Cn1cnc2c(N)nc3ccccc3c21 [Imiquimod],–,72.5 ± 18.4,37 ± 8.1% of untreated control,"Vero Viability [1, 5]: 91.3 ± 1.2% of untreated control"
O=c1cc(N2CCOCC2)oc2c(-c3ccccc3)cccc12 [LY294002],–,548 ± 221,97 ± 17.2% of untreated control,"Vero Viability [1, 5]: 56.0 ± 6% of untreated control"
CC(C)C[C@@H](C=O)NC(=O)[C@H](CC(C)C)NC(=O)[C@H](CC(C)C)NC(=O)OCc1ccccc1 [MG132] (Cbz-Leu-Leu-Leu-aldehyde),10.7 ± 2.8% of untreated control,9.5 ± 7.1,31 ± 5.7% of untreated control,–
CN(C)C(=N)N=C(N)N [Metformin·HCl],92.3 ± 4.2% of untreated control,–,64 ± 10.3% of untreated control,–
Nc1cc(N2CCCCC2)nc(N)[n+]1[O-] [Minoxidil],96.3 ± 3.2% of untreated control,146 ± 16.6,72 ± 2.6% of untreated control,–
O=C(Nc1ccc([N+](=O)[O-])cc1Cl)c1cc(Cl)ccc1O [Niclosamide],29.7 ± 3.8% of untreated control,0.1,2 ± 0.3% of untreated control,–
COCCOC(=O)C1=C(C)NC(C)=C(C(=O)OC(C)C)C1c1cccc([N+](=O)[O-])c1 (stereo not shown) [Nimodipine],92.0 ± 1.5% of untreated control,26.9 ± 13.6,41 ± 8.4% of untreated control,–
CCOC(=O)C1=C(C)NC(C)=C(C(=O)OC)C1c1cccc([N+](=O)[O-])c1 (stereo not shown) [Nitrendipine],–,220 ± 44.4,62 ± 10.5% of untreated control,"Vero Viability [1, 5]: 88.7 ± 1.9% of untreated control"
Oc1cccc(-c2nc(N3CCOCC3)c3oc4ncccc4c3n2)c1 [PI-103],43.7 ± 6.4% of untreated control,46.2 ± 13.3,–,C6/36 Viability ([3]; 10 µM): 39 ± 8.9% of untreated control
O=c1[nH]c2ccccc2n1C1CCN(CCCC(c2ccc(F)cc2)c2ccc(F)cc2)CC1 [Pimozide],90.0 ± 5.7% of untreated control,109 ± 22,49 ± 3.6% of untreated control,–
CC1=CC(=O)c2c(O)cccc2C1=O [Plumbagin],2.0 ± 0% of untreated control,21.4 ± 17.5,–,C6/36 Viability ([3]; 10 µM): 49 ± 1.5% of untreated control
Oc1ccc(/C=C/c2cc(O)cc(O)c2)cc1 [Resveratrol],87.3 ± 2.3% of untreated control,155 ± 62,81 ± 7.5% of untreated control,–
C1COC(NC(C2CC2)C2CC2)=N1 [Rilmenidine],97.0 ± 2% of untreated control,161 ± 58.1,–,C6/36 Viability ([3]; 10 µM): 79 ± 8.3% of untreated control
c1ccc2c(-c3ccncc3)c[nH]c2c1 [Rockout],87.7 ± 3.8% of untreated control,96.2 ± 44.2,–,C6/36 Viability ([3]; 10 µM): 76 ± 5.2% of untreated control
